Measurements published in the supplement of paper PMC10307832.

Each cell line was assayed with CC(C)C[C@H](NC(=O)[C@H](CCc1ccccc1)NC(=O)CN1CCOCC1)C(=O)N[C@@H](Cc1ccccc1)C(=O)N[C@@H](CC(C)C)C(=O)[C@@]1(C)CO1 [Carfilzomib] + CC(=O)Nc1cccc(-n2c(=O)n(C3CC3)c(=O)c3c(Nc4ccc(I)cc4F)n(C)c(=O)c(C)c32)c1 [Trametinib] (partner 0.02 µM) (assay: relative viability (nuclei count vs DMSO), 5 days (fraction); higher = more cells survive). Conditions: first compound 0.001 µM.
Outline: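 Relative viability equals treated-well nuclei counts divided by vehicle-well nuclei counts. Counts came from 4× images of lung cancer cell lines grown in 1536-well plates for 5 days after pin-tool dosing on the day after seeding. Dosing used one drug alone or a fixed anchor-drug dose plus five library-drug doses (not always all listed) in √10 steps, and values are medians of duplicate plates.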

Compared with 201T, A-427 is higher in relative viability: 0.712 for the first, 0.83 for the second.

Going from BEN to CAL-12T, the relative viability falls from 0.961 to 0.367.

Compared with COR-L23, COR-L 105 is lower in relative viability: 0.565 for the first, 0.451 for the second.

Compared with ChaGo-K-1, EKVX is lower in relative viability: 0.873 for the first, 0.338 for the second.

Compared with EMC-BAC-2, EPLC-272H is lower in relative viability: 0.895 for the first, 0.281 for the second.

First: H3255
Second: HARA
The relative viability of the first is higher: 0.67 for the first, 0.66 for the second.

Going from HCC-15 to HCC-44, the relative viability rises from 0.367 to 0.966.

Going from HCC-78 to HCC-366, the relative viability falls from 0.672 to 0.345.

First: HCC-827
Second: HOP-62
The relative viability of the first is higher: 0.566 for the first, 0.385 for the second.

Compared with LC-2-ad, LCLC-97TM1 is lower in relative viability: 0.9 for the first, 0.19 for the second.

Compared with LCLC-103H, LK-2 is higher in relative viability: 0.688 for the first, 0.713 for the second.

Going from LOU-NH91 to NCI-H520, the relative viability falls from 0.831 to 0.531.

Going from NCI-H661 to NCI-H1650, the relative viability falls from 0.642 to 0.487.

Going from NCI-H2009 to NCI-H2023, the relative viability rises from 0.232 to 0.486.

Going from NCI-H2228 to SK-LU-1, the relative viability rises from 0.235 to 0.394.

Compared with SK-MES-1, SW 1573 is higher in relative viability: 0.545 for the first, 0.55 for the second.

With UMC-11 the relative viability was 0.32.

Same assay, conditions: first compound 0.003162 µM

Compared with 201T, A-427 is higher in relative viability: 0.705 for the first, 0.744 for the second.

First: BEN
Second: CAL-12T
The relative viability of the first is higher: 0.995 for the first, 0.288 for the second.

Going from COR-L23 to COR-L 105, the relative viability falls from 0.739 to 0.458.

Going from ChaGo-K-1 to EKVX, the relative viability falls from 0.924 to 0.418.

First: EMC-BAC-2
Second: EPLC-272H
The relative viability of the first is higher: 0.962 for the first, 0.303 for the second.

First: H3255
Second: HARA
The relative viability of the first is higher: 0.737 for the first, 0.693 for the second.

Compared with HCC-15, HCC-44 is higher in relative viability: 0.426 for the first, 1.08 for the second.

First: HCC-78
Second: HCC-366
The relative viability of the first is higher: 0.849 for the first, 0.388 for the second.

Compared with HCC-827, HOP-62 is lower in relative viability: 0.542 for the first, 0.38 for the second.

First: LC-2-ad
Second: LCLC-97TM1
The relative viability of the first is higher: 0.97 for the first, 0.21 for the second.

First: LCLC-103H
Second: LK-2
The relative viability of the first is lower: 0.643 for the first, 0.973 for the second.

Going from LOU-NH91 to NCI-H520, the relative viability falls from 0.81 to 0.697.

Going from NCI-H661 to NCI-H1650, the relative viability falls from 0.635 to 0.537.

Going from NCI-H1792 to NCI-H2009, the relative viability falls from 0.456 to 0.312.

Going from NCI-H2023 to NCI-H2228, the relative viability falls from 0.614 to 0.584.

First: SK-LU-1
Second: SK-MES-1
The relative viability of the first is higher: 0.545 for the first, 0.536 for the second.

Compared with SW 1573, UMC-11 is higher in relative viability: 0.626 for the first, 0.739 for the second.

Same assay, conditions: first compound 0.01 µM

First: 201T
Second: A-427
The relative viability of the first is lower: 0.718 for the first, 0.755 for the second.

First: BEN
Second: CAL-12T
The relative viability of the first is higher: 1.07 for the first, 0.428 for the second.

Going from COR-L23 to COR-L 105, the relative viability falls from 0.577 to 0.416.

Going from ChaGo-K-1 to EKVX, the relative viability falls from 0.878 to 0.368.

Compared with EMC-BAC-2, EPLC-272H is lower in relative viability: 1.04 for the first, 0.286 for the second.

Going from H3255 to HARA, the relative viability falls from 0.643 to 0.627.

First: HCC-15
Second: HCC-44
The relative viability of the first is lower: 0.432 for the first, 1 for the second.

Going from HCC-78 to HCC-366, the relative viability falls from 0.69 to 0.405.

Going from HCC-827 to HOP-62, the relative viability falls from 0.534 to 0.363.

First: LC-2-ad
Second: LCLC-97TM1
The relative viability of the first is higher: 0.881 for the first, 0.227 for the second.

First: LCLC-103H
Second: LK-2
The relative viability of the first is lower: 0.72 for the first, 0.747 for the second.

First: LOU-NH91
Second: NCI-H520
The relative viability of the first is higher: 0.818 for the first, 0.598 for the second.

Compared with NCI-H661, NCI-H1650 is lower in relative viability: 0.599 for the first, 0.52 for the second.

First: NCI-H1792
Second: NCI-H2009
The relative viability of the first is higher: 0.451 for the first, 0.287 for the second.

First: NCI-H2023
Second: NCI-H2228
The relative viability of the first is lower: 0.669 for the first, 0.697 for the second.

Compared with SK-LU-1, SK-MES-1 is higher in relative viability: 0.474 for the first, 0.549 for the second.

Going from SW 1573 to UMC-11, the relative viability rises from 0.55 to 0.657.

Same assay, conditions: first compound 0.03162 µM

First: 201T
Second: A-427
The relative viability of the first is higher: 0.734 for the first, 0.528 for the second.

Compared with BEN, CAL-12T is lower in relative viability: 1.11 for the first, 0.167 for the second.

Going from COR-L23 to COR-L 105, the relative viability rises from 0.0935 to 0.35.

First: ChaGo-K-1
Second: EMC-BAC-2
The relative viability of the first is lower: 0.47 for the first, 0.791 for the second.

Compared with EPLC-272H, HARA is higher in relative viability: 0.0724 for the first, 0.339 for the second.

Compared with HCC-15, HCC-44 is higher in relative viability: 0.372 for the first, 1.07 for the second.

Going from HCC-78 to HCC-366, the relative viability falls from 0.597 to 0.293.

First: HCC-827
Second: HOP-62
The relative viability of the first is higher: 0.491 for the first, 0.21 for the second.

Compared with LC-2-ad, LCLC-97TM1 is lower in relative viability: 0.917 for the first, 0.0729 for the second.

Compared with LCLC-103H, LK-2 is lower in relative viability: 0.642 for the first, 0.172 for the second.

Going from LOU-NH91 to NCI-H520, the relative viability falls from 0.389 to 0.124.

First: NCI-H661
Second: NCI-H1650
The relative viability of the first is higher: 0.526 for the first, 0.103 for the second.

First: NCI-H1792
Second: NCI-H2009
The relative viability of the first is higher: 0.396 for the first, 0.295 for the second.

First: NCI-H2023
Second: NCI-H2228
The relative viability of the first is higher: 0.269 for the first, 0.103 for the second.

First: SK-LU-1
Second: SK-MES-1
The relative viability of the first is lower: 0.202 for the first, 0.44 for the second.

Going from SW 1573 to UMC-11, the relative viability rises from 0.0697 to 0.703.

Same assay, conditions: first compound 0.1 µM

Going from 201T to A-427, the relative viability falls from 0.679 to 0.201.

First: BEN
Second: CAL-12T
The relative viability of the first is higher: 0.451 for the first, 0.11 for the second.

Compared with COR-L23, COR-L 105 is higher in relative viability: 0.0822 for the first, 0.328 for the second.

Compared with ChaGo-K-1, EKVX is higher in relative viability: 0.168 for the first, 0.172 for the second.

Compared with EMC-BAC-2, EPLC-272H is lower in relative viability: 0.277 for the first, 0.0619 for the second.

Going from H3255 to HARA, the relative viability falls from 0.24 to 0.109.

First: HCC-15
Second: HCC-44
The relative viability of the first is lower: 0.17 for the first, 0.77 for the second.

Going from HCC-78 to HCC-366, the relative viability falls from 0.255 to 0.0458.

Going from HCC-827 to HOP-62, the relative viability falls from 0.191 to 0.0811.

Going from LC-2-ad to LCLC-97TM1, the relative viability falls from 0.471 to 0.0639.

LCLC-103H gave a relative viability of 0.557.
